The data set in a line: recombinant barcode read abundance after kanamycin selection (control-corrected) (log10(CPM+1)); higher = more efficient recombination; sequences stand for … in AGTGCAGAGAAAATCGGCCAGTTTTCTCTGCCTGCAGTCCGCATGCCGT…ATTTATGCAGCGGACTGCCTTTCTCCCAAAGTGATAAACCGGACAGTATCATGGACCGGTTTTCCCGGTAATCCGTATTTGCAAGGTTGGTTTCACT; site = the 11-nt target. The method, boiled down: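 Recombination efficiency in this pooled E. coli screen uses counts per million of barcodes at recombinant junctions, averaged and corrected against the control. The reported form is log10(CPM+1). Two replicates were plated on chloramphenicol/ampicillin LB agar as control and two on chloramphenicol/ampicillin/kanamycin with 0.1 mM IPTG.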

For the sequence “CGGTCCCGCTGGGTTCTAACCTGTTGCCAAG [CGGTCCCCTTG_LTGcore_GC_RTGcore_CT] (site CGGTCCCCTTG) (LTG core: GC, RTG core: CT)”, the “recombinant barcode read abundance (log10)” value was 0.313.

Turning to “CGGTCCCGCTGGGTTCTAACCTGTTGCCAGC [CGGTCCCCTTG_LTGcore_GC_RTGcore_GC] (site CGGTCCCCTTG) (LTG core: GC, RTG core: GC)”, the “recombinant barcode read abundance (log10)” value was 0.475.

“CGGTCCCGGTGGGTTCTAACCTGTTGCCACC [CGGTCCCCTTG_LTGcore_GG_RTGcore_GG] (site CGGTCCCCTTG) (LTG core: GG, RTG core: GG)”: the “recombinant barcode read abundance (log10)” value stood at 0.213.

For the sequence “CGGTCCCTATGGGTTCTAACCTGTTGCCAAG [CGGTCCCCTTG_LTGcore_TA_RTGcore_CT] (site CGGTCCCCTTG) (LTG core: TA, RTG core: CT)”, the “recombinant barcode read abundance (log10)” value stood at 0.0831.

As to “GAGCCCAAGTGGGTTCTAACCTGTTGCCTCT [GAGCCCACTAG_LTGcore_AG_RTGcore_AG] (site GAGCCCACTAG) (LTG core: AG, RTG core: AG)”, the “recombinant barcode read abundance (log10)” value stood at 0.229.

For the sequence “GAGCCCACATGGGTTCTAACCTGTTGCCTAG [GAGCCCACTAG_LTGcore_CA_RTGcore_CT] (site GAGCCCACTAG) (LTG core: CA, RTG core: CT)”, the “recombinant barcode read abundance (log10)” value was 0.304.

On to “GAGCCCACTTGGGTTCTAACCTGTTGCCTCC [GAGCCCACTAG_LTGcore_CT_RTGcore_GG] (site GAGCCCACTAG) (LTG core: CT, RTG core: GG)”, for which the “recombinant barcode read abundance (log10)” value stood at 0.136.

On to “GAGCCCACTTGGGTTCTAACCTGTTGCCTGA [GAGCCCACTAG_LTGcore_CT_RTGcore_TC] (site GAGCCCACTAG) (LTG core: CT, RTG core: TC)”, for which the “recombinant barcode read abundance (log10)” value was 0.207.

“GAGCCCACTTGGGTTCTAACCTGTTGCCTGC [GAGCCCACTAG_LTGcore_CT_RTGcore_GC] (site GAGCCCACTAG) (LTG core: CT, RTG core: GC)”: the “recombinant barcode read abundance (log10)” value worked out at 0.3.

Regarding “GAGCCCACTTGGGTTCTAACCTGTTGCCTGG [GAGCCCACTAG_LTGcore_CT_RTGcore_CC] (site GAGCCCACTAG) (LTG core: CT, RTG core: CC)”, the “recombinant barcode read abundance (log10)” value came out at 0.911.

In the case of “GAGCCCACTTGGGTTCTAACCTGTTGCCTGT [GAGCCCACTAG_LTGcore_CT_RTGcore_AC] (site GAGCCCACTAG) (LTG core: CT, RTG core: AC)”, the “recombinant barcode read abundance (log10)” value was found to be 0.522.

As to “GAGCCCACTTGGGTTCTAACCTGTTGCCTTC [GAGCCCACTAG_LTGcore_CT_RTGcore_GA] (site GAGCCCACTAG) (LTG core: CT, RTG core: GA)”, the “recombinant barcode read abundance (log10)” value was 0.518.

On to “GAGCCCAGCTGGGTTCTAACCTGTTGCCTAG [GAGCCCACTAG_LTGcore_GC_RTGcore_CT] (site GAGCCCACTAG) (LTG core: GC, RTG core: CT)”, for which the “recombinant barcode read abundance (log10)” value stood at 0.266.

Regarding “GAGCCCATGTGGGTTCTAACCTGTTGCCTCA [GAGCCCACTAG_LTGcore_TG_RTGcore_TG] (site GAGCCCACTAG) (LTG core: TG, RTG core: TG)”, the “recombinant barcode read abundance (log10)” value is 0.995.

As for “GAGGCCTCTTGGGTTCTAACCTGTTGCCAAC [GAGGCCTCTTG_LTGcore_CT_RTGcore_GT] (site GAGGCCTCTTG) (LTG core: CT, RTG core: GT)”, the “recombinant barcode read abundance (log10)” value stood at 1.25.

Take “GAGGCCTCTTGGGTTCTAACCTGTTGCCAGA [GAGGCCTCTTG_LTGcore_CT_RTGcore_TC] (site GAGGCCTCTTG) (LTG core: CT, RTG core: TC)”: the “recombinant barcode read abundance (log10)” value stood at 0.245.

Consider “GAGGCCTCTTGGGTTCTAACCTGTTGCCATG [GAGGCCTCTTG_LTGcore_CT_RTGcore_CA] (site GAGGCCTCTTG) (LTG core: CT, RTG core: CA)”, for which the “recombinant barcode read abundance (log10)” value stood at 0.0789.

For “GAGGCCTGGTGGGTTCTAACCTGTTGCCAAG [GAGGCCTCTTG_LTGcore_GG_RTGcore_CT] (site GAGGCCTCTTG) (LTG core: GG, RTG core: CT)”, the “recombinant barcode read abundance (log10)” value came out at 0.103.

With “GAGGCCTGGTGGGTTCTAACCTGTTGCCACC [GAGGCCTCTTG_LTGcore_GG_RTGcore_GG] (site GAGGCCTCTTG) (LTG core: GG, RTG core: GG)”, the “recombinant barcode read abundance (log10)” value came to 0.445.

Take “GAGTCCAAATGGGTTCTAACCTGTTGCGTTT [GAGTCCACTAC_LTGcore_AA_RTGcore_AA] (site GAGTCCACTAC) (LTG core: AA, RTG core: AA)”: the “recombinant barcode read abundance (log10)” value came out at 0.0227.

Regarding “GAGTCCAACTGGGTTCTAACCTGTTGCGTGT [GAGTCCACTAC_LTGcore_AC_RTGcore_AC] (site GAGTCCACTAC) (LTG core: AC, RTG core: AC)”, the “recombinant barcode read abundance (log10)” value was 0.0932.

As to “GAGTCCAATTGGGTTCTAACCTGTTGCGTAG [GAGTCCACTAC_LTGcore_AT_RTGcore_CT] (site GAGTCCACTAC) (LTG core: AT, RTG core: CT)”, the “recombinant barcode read abundance (log10)” value worked out at 0.156.

“GAGTCCACCTGGGTTCTAACCTGTTGCGTGG [GAGTCCACTAC_LTGcore_CC_RTGcore_CC] (site GAGTCCACTAC) (LTG core: CC, RTG core: CC)”: the “recombinant barcode read abundance (log10)” value is 0.0684.

“GAGTCCACGTGGGTTCTAACCTGTTGCGTAG [GAGTCCACTAC_LTGcore_CG_RTGcore_CT] (site GAGTCCACTAC) (LTG core: CG, RTG core: CT)”: the “recombinant barcode read abundance (log10)” value worked out at 0.114.

For the sequence “GAGTCCACTTGGGTTCTAACCTGTTGCGTAT [GAGTCCACTAC_LTGcore_CT_RTGcore_AT] (site GAGTCCACTAC) (LTG core: CT, RTG core: AT)”, the “recombinant barcode read abundance (log10)” value came out at 0.389.

Turning to “GAGTCCACTTGGGTTCTAACCTGTTGCGTCG [GAGTCCACTAC_LTGcore_CT_RTGcore_CG] (site GAGTCCACTAC) (LTG core: CT, RTG core: CG)”, the “recombinant barcode read abundance (log10)” value turned out to be 0.702.

Consider “GAGTCCAGCTGGGTTCTAACCTGTTGCGTAG [GAGTCCACTAC_LTGcore_GC_RTGcore_CT] (site GAGTCCACTAC) (LTG core: GC, RTG core: CT)”, for which the “recombinant barcode read abundance (log10)” value worked out at 0.0179.

For the sequence “GAGTCCAGTTGGGTTCTAACCTGTTGCGTAG [GAGTCCACTAC_LTGcore_GT_RTGcore_CT] (site GAGTCCACTAC) (LTG core: GT, RTG core: CT)”, the “recombinant barcode read abundance (log10)” value amounted to 0.283.

Turning to “GAGTCCATTTGGGTTCTAACCTGTTGCGTAA [GAGTCCACTAC_LTGcore_TT_RTGcore_TT] (site GAGTCCACTAC) (LTG core: TT, RTG core: TT)”, the “recombinant barcode read abundance (log10)” value stood at 0.0342.

Turning to “GAGTCCTACTGGGTTCTAACCTGTTGCCTAG [GAGTCCTCTAG_LTGcore_AC_RTGcore_CT] (site GAGTCCTCTAG) (LTG core: AC, RTG core: CT)”, the “recombinant barcode read abundance (log10)” value stood at 0.674.

With “GAGTCCTACTGGGTTCTAACCTGTTGCCTGT [GAGTCCTCTAG_LTGcore_AC_RTGcore_AC] (site GAGTCCTCTAG) (LTG core: AC, RTG core: AC)”, the “recombinant barcode read abundance (log10)” value amounted to 0.011.

With “GAGTCCTAGTGGGTTCTAACCTGTTGCCTAG [GAGTCCTCTAG_LTGcore_AG_RTGcore_CT] (site GAGTCCTCTAG) (LTG core: AG, RTG core: CT)”, the “recombinant barcode read abundance (log10)” value came to 0.445.

In the case of “GAGTCCTCATGGGTTCTAACCTGTTGCCTAG [GAGTCCTCTAG_LTGcore_CA_RTGcore_CT] (site GAGTCCTCTAG) (LTG core: CA, RTG core: CT)”, the “recombinant barcode read abundance (log10)” value was determined as 1.08.

For the sequence “GAGTCCTCCTGGGTTCTAACCTGTTGCCTGG [GAGTCCTCTAG_LTGcore_CC_RTGcore_CC] (site GAGTCCTCTAG) (LTG core: CC, RTG core: CC)”, the “recombinant barcode read abundance (log10)” value is 0.561.

For the sequence “GAGTCCTCTTGGGTTCTAACCTGTTGCCTAA [GAGTCCTCTAG_LTGcore_CT_RTGcore_TT] (site GAGTCCTCTAG) (LTG core: CT, RTG core: TT)”, the “recombinant barcode read abundance (log10)” value amounted to 1.08.

As for “GAGTCCTCTTGGGTTCTAACCTGTTGCCTCC [GAGTCCTCTAG_LTGcore_CT_RTGcore_GG] (site GAGTCCTCTAG) (LTG core: CT, RTG core: GG)”, the “recombinant barcode read abundance (log10)” value worked out at 1.21.

In the case of “GAGTCCTGCTGGGTTCTAACCTGTTGCCTAG [GAGTCCTCTAG_LTGcore_GC_RTGcore_CT] (site GAGTCCTCTAG) (LTG core: GC, RTG core: CT)”, the “recombinant barcode read abundance (log10)” value is 0.0703.

With “GAGTCCTTATGGGTTCTAACCTGTTGCCTTA [GAGTCCTCTAG_LTGcore_TA_RTGcore_TA] (site GAGTCCTCTAG) (LTG core: TA, RTG core: TA)”, the “recombinant barcode read abundance (log10)” value is 0.136.

For the sequence “GAGTCCTTCTGGGTTCTAACCTGTTGCCTAG [GAGTCCTCTAG_LTGcore_TC_RTGcore_CT] (site GAGTCCTCTAG) (LTG core: TC, RTG core: CT)”, the “recombinant barcode read abundance (log10)” value came out at 0.0148.

Take “GAGTCCTTCTGGGTTCTAACCTGTTGCCTGA [GAGTCCTCTAG_LTGcore_TC_RTGcore_TC] (site GAGTCCTCTAG) (LTG core: TC, RTG core: TC)”: the “recombinant barcode read abundance (log10)” value turned out to be 0.0603.

As for “GAGTCCTTGTGGGTTCTAACCTGTTGCCTCA [GAGTCCTCTAG_LTGcore_TG_RTGcore_TG] (site GAGTCCTCTAG) (LTG core: TG, RTG core: TG)”, the “recombinant barcode read abundance (log10)” value came out at 0.235.

Consider “GCGCGACAATGGGTTCTAACCTGTTGCTTTT [GCGCGACCTAA_LTGcore_AA_RTGcore_AA] (site GCGCGACCTAA) (LTG core: AA, RTG core: AA)”, for which the “recombinant barcode read abundance (log10)” value worked out at 0.188.

As to “GCGCGACCATGGGTTCTAACCTGTTGCTTTG [GCGCGACCTAA_LTGcore_CA_RTGcore_CA] (site GCGCGACCTAA) (LTG core: CA, RTG core: CA)”, the “recombinant barcode read abundance (log10)” value was 0.125.

The values are drawn from the supplement of paper PMC11208160.
